According to patent US7829665B2 (priority 2005, dated 2010):
pEC50, pIC50: −log10 of the molar value. Like-named read-outs stand apart in the source and are kept apart here.

Experiments:
[1] = test system: HCV sub-genomic replicon in GS4.3 cells (HuH-7 hepatoma cells); experiment: Quantitation by ELISA of Neomycin phosphotransferase II (NPTII) in the HCV sub-genomic replicon, GS4.3; type: cell-based, hepatitis C virus; details: Hepatitis C virus, Huh-7; GS4.3 cells, 72 h incubation, NPTII ELISA; read-out: Replicon EC50
How it was run: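 HuH-7 GS4.3 cells carrying HCV sub-genomic replicon 1377/NS3-3′, treated 72 h at 37 °C without G418 with 3-fold dilutions from 10 μM to 56 pM (1% DMSO). NPTII in cell lysates measured by direct ELISA with TMB readout at 450 nm. EC50 from 4-parameter fit of percent DMSO-control signal.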

[2] = target: T1, full-length NS3/NS4A-2 (HCV NS3 protease) (Hepatitis C virus genotype 1a, UniProt P27958); experiment: NS3-NS4 protease assay / NS3 inhibition assay (RETS1 substrate, fluorescence kinetic read); type: biochemical
T1 construct: Recombinant E. coli or Baculovirus full-length NS3 was diluted to 3.33 μM with assay buffer; made in house; host or cells: E. coli or baculovirus (BV) expression system
How it was run: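 Full-length NS3 from E. coli (2 nM in assay) or baculovirus (3 nM) was precomplexed with excess NS4A-2 peptide, then preincubated 10 min at room temperature with serially diluted compounds starting at 50 microM. Reaction was started with RETS1 substrate at 8 μM before addition and read kinetically for 30 min (ex 335/em 495 nm). Four-parameter IC50s were converted to Ki by Cheng-Prusoff using Km 2.03 μM (E. coli) or 1.74 μM (BV).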

[3] = recombinant E. coli or Baculovirus full-length NS3 with NS4A-2, read-out: NS3-NS4 IC50

T1 sequence (P27958 1027-1657): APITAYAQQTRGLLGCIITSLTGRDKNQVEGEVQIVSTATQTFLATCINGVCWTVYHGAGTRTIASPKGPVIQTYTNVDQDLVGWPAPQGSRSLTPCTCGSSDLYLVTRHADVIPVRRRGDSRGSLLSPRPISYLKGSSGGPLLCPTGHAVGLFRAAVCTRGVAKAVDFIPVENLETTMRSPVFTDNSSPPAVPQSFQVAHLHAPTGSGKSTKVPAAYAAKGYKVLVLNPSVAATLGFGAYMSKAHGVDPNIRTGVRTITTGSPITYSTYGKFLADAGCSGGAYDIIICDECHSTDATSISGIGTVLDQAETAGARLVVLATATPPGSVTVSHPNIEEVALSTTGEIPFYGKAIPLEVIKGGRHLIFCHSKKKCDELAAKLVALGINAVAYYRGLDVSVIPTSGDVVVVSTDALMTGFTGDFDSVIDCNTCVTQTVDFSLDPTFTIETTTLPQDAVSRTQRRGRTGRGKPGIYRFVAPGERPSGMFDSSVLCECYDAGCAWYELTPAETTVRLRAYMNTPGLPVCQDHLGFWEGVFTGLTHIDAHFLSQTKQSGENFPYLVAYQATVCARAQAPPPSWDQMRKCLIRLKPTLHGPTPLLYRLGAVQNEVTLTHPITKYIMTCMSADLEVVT

| SMILES | pEC50 [1] | pIC50 [2, 3] | pIC50 [2] |
| --- | --- | --- | --- |
| CN(C)S(=O)(=O)NC(=O)[C@@]12C[C@H]1/C=C\CCCCC[C@H](NC(=O)OC(C)(C)C)C(=O)N1C[C@H](OC(=O)N3Cc4c(Cl)ccc(Cl)c4C3)C[C@H]1C(=O)N2 [Compound 206] | > 7.00 | > 7.00 |  |
| CC(C)(C)OC(=O)N[C@H]1CCCCC/C=C\[C@@H]2C[C@@]2(C(=O)NS(=O)(=O)N2CCOCC2)NC(=O)[C@@H]2C[C@@H](OC(=O)N3Cc4cccc(Cl)c4C3)CN2C1=O [Compound 207] | > 7.00 | > 7.00 |  |
| COc1cc2c(cc1OC)CN(C(=O)O[C@@H]1C[C@H]3C(=O)N[C@]4(C(=O)NS(=O)(=O)N5CCOCC5)C[C@H]4/C=C\CCCCC[C@H](NC(=O)OC(C)(C)C)C(=O)N3C1)CC2 [Compound 208] | > 5.00 | > 7.00 |  |
| CC(C)(C)OC(=O)N[C@H]1CCCCC/C=C\[C@@H]2C[C@@]2(C(=O)NS(=O)(=O)N2CCOCC2)NC(=O)[C@@H]2C[C@@H](OC(=O)N3Cc4cccc(F)c4C3)CN2C1=O [Compound 209] | > 7.00 | > 7.00 |  |
| CN(Cc1ccccc1)S(=O)(=O)NC(=O)[C@@]12C[C@H]1/C=C\CCCCC[C@H](NC(=O)OC(C)(C)C)C(=O)N1C[C@H](OC(=O)N3Cc4cccc(F)c4C3)C[C@H]1C(=O)N2 [Compound 210] | > 7.00 | > 7.00 |  |
| CC(C)(C)OC(=O)N[C@H]1CCCCC/C=C\[C@@H]2C[C@@]2(C(=O)NS(=O)(=O)N2CCC(F)(F)C2)NC(=O)[C@@H]2C[C@@H](OC(=O)N3Cc4cccc(Cl)c4C3)CN2C1=O [Compound 211] | > 7.00 | > 7.00 |  |
| CC(C)(C)OC(=O)N[C@H]1CCCCC/C=C\[C@@H]2C[C@@]2(C(=O)NS(=O)(=O)NC2CCCC2)NC(=O)[C@@H]2C[C@@H](OC(=O)N3Cc4cccc(Cl)c4C3)CN2C1=O [Compound 212] | > 6.00 | > 7.00 |  |
| CC(C)(C)OC(=O)N[C@H]1CCCCC/C=C\[C@@H]2C[C@@]2(C(=O)NS(=O)(=O)NC2CC2)NC(=O)[C@@H]2C[C@@H](OC(=O)N3Cc4cccc(Cl)c4C3)CN2C1=O [Compound 213] | > 7.00 | > 7.00 |  |
| CC(C)(C)OC(=O)N[C@H]1CCCCC/C=C\[C@@H]2C[C@@]2(C(=O)NS(=O)(=O)N2CCCC2)NC(=O)[C@@H]2C[C@@H](OC(=O)N3Cc4cccc(Cl)c4C3)CN2C1=O [Compound 214] | > 7.00 | > 7.00 |  |
| CN(C)S(=O)(=O)NC(=O)[C@@]12C[C@H]1/C=C\CCCCC[C@H](NC(=O)OC1CCCC1)C(=O)N1C[C@H](OC(=O)N3Cc4cccc(F)c4C3)C[C@H]1C(=O)N2 [Compound 215] | > 7.00 | > 7.00 |  |
| O=C(N[C@H]1CCCCC/C=C\[C@@H]2C[C@@]2(C(=O)NS(=O)(=O)N2CCCC2)NC(=O)[C@@H]2C[C@@H](OC(=O)N3Cc4cccc(F)c4C3)CN2C1=O)OC1CCCC1 [Compound 216] | > 7.00 | > 7.00 |  |
| O=C(N[C@H]1CCCCC/C=C\[C@@H]2C[C@@]2(C(=O)NS(=O)(=O)N2CCC2)NC(=O)[C@@H]2C[C@@H](OC(=O)N3Cc4cccc(F)c4C3)CN2C1=O)OC1CCCC1 [Compound 217] | > 7.00 | > 7.00 |  |
| CC(C)NS(=O)(=O)NC(=O)[C@@]12C[C@H]1/C=C\CCCCC[C@H](NC(=O)OC1CCCC1)C(=O)N1C[C@H](OC(=O)N3Cc4cccc(F)c4C3)C[C@H]1C(=O)N2 [Compound 218] | > 7.00 | > 7.00 |  |
| O=C(N[C@H]1CCCCC/C=C\[C@@H]2C[C@@]2(C(=O)NS(=O)(=O)Nc2ccc(Cl)cc2)NC(=O)[C@@H]2C[C@@H](OC(=O)N3Cc4cccc(F)c4C3)CN2C1=O)OC1CCCC1 [Compound 219] | > 5.00 | > 7.00 |  |
| N[C@H]1CCCCC/C=C\[C@@H]2C[C@@]2(C(=O)NS(=O)(=O)N2CCCC2)NC(=O)[C@@H]2C[C@@H](OC(=O)N3Cc4cccc(Cl)c4C3)CN2C1=O [Compound 220] | > 6.00 |  | > 7.00 |
| N[C@H]1CCCCC/C=C\[C@@H]2C[C@@]2(C(=O)NS(=O)(=O)NC2CCCC2)NC(=O)[C@@H]2C[C@@H](OC(=O)N3Cc4cccc(Cl)c4C3)CN2C1=O [Compound 221] | > 5.00 | > 7.00 |  |
| N[C@H]1CCCCC/C=C\[C@@H]2C[C@@]2(C(=O)NS(=O)(=O)N2CCC(F)(F)C2)NC(=O)[C@@H]2C[C@@H](OC(=O)N3Cc4cccc(Cl)c4C3)CN2C1=O [Compound 222] | > 5.00 |  | > 7.00 |
| O=C(N[C@H]1CCCCC/C=C\[C@@H]2C[C@@]2(C(=O)NS(=O)(=O)NCC(F)(F)F)NC(=O)[C@@H]2C[C@@H](OC(=O)N3Cc4cccc(F)c4C3)CN2C1=O)OC1CCCC1 [Compound 223] | > 6.00 | > 7.00 |  |

| SMILES | pEC50 [1] | pIC50 [2, 3] | pIC50 [2] |
| --- | --- | --- | --- |
| O=C(N[C@H]1CCCCC/C=C\[C@@H]2C[C@@]2(C(=O)NS(=O)(=O)N(CC(F)(F)F)CC(F)(F)F)NC(=O)[C@@H]2C[C@@H](OC(=O)N3Cc4cccc(F)c4C3)CN2C1=O)OC1CCCC1 [Compound 224] | > 5.00 | > 6.00 |  |
| O=C(N[C@H]1CCCCC/C=C\[C@@H]2C[C@@]2(C(=O)NS(=O)(=O)N2CCC(F)(F)C2)NC(=O)[C@@H]2C[C@@H](OC(=O)N3Cc4cccc(F)c4C3)CN2C1=O)OC1CCCC1 [Compound 225] | > 7.00 | > 7.00 |  |
| O=C(N[C@H]1CCCCC/C=C\[C@@H]2C[C@@]2(C(=O)NS(=O)(=O)N2CCC(F)(F)C2)NC(=O)C2C[C@@H](OC(=O)N3Cc4ccccc4C3)CN2C1=O)OC1CCCC1 (stereo partly shown) [Compound 227] | > 7.00 | > 7.00 |  |
| O=C(N[C@H]1CCCCC/C=C\[C@@H]2C[C@@]2(C(=O)NS(=O)(=O)N2CC(F)(F)C2)NC(=O)C2C[C@@H](OC(=O)N3Cc4cccc(Cl)c4C3)CN2C1=O)OC1CCCC1 (stereo partly shown) [Compound 228] | > 7.00 | > 7.00 |  |
| O=C(N[C@H]1CCCCC/C=C\[C@@H]2C[C@@]2(C(=O)NS(=O)(=O)N2CC(F)(F)C2)NC(=O)C2C[C@@H](OC(=O)N3Cc4cccc(F)c4C3)CN2C1=O)OC1CCCC1 (stereo partly shown) [Compound 229] | > 6.00 | > 7.00 |  |
| O=C(N[C@H]1CCCCC/C=C\[C@@H]2C[C@@]2(C(=O)NS(=O)(=O)N2CC(F)(F)C2)NC(=O)C2C[C@@H](OC(=O)N3Cc4ccccc4C3)CN2C1=O)OC1CCCC1 (stereo partly shown) [Compound 230] | > 6.00 | > 7.00 |  |
| O=C(N[C@H]1CCCCC/C=C\[C@@H]2C[C@@]2(C(=O)NS(=O)(=O)NC2CC2)NC(=O)[C@@H]2C[C@@H](OC(=O)N3CCc4ccccc4C3)CN2C1=O)OC1CCCC1 [Compound 231] | > 7.00 | > 7.00 |  |
| O=C(N[C@H]1CCCCC/C=C\[C@@H]2C[C@@]2(C(=O)NS(=O)(=O)N2CCC2)NC(=O)[C@@H]2C[C@@H](OC(=O)N3CCc4ccccc4C3)CN2C1=O)OC1CCCC1 [Compound 233] | > 7.00 | > 7.00 |  |
| CC(C)(C)OC(=O)N[C@H]1CCCCC/C=C\[C@@H]2C[C@@]2(C(=O)NC(=O)N2CCOCC2)NC(=O)[C@@H]2C[C@@H](OC(=O)N3Cc4cccc(F)c4C3)CN2C1=O [Compound 234] | > 7.00 | > 7.00 |  |
| CN(C)C(=O)NC(=O)[C@@]12C[C@H]1/C=C\CCCCC[C@H](NC(=O)OC(C)(C)C)C(=O)N1C[C@H](OC(=O)N3Cc4cccc(F)c4C3)C[C@H]1C(=O)N2 [Compound 235] | > 7.00 | > 7.00 |  |
| CN(C)C(=S)NC(=O)[C@@]12C[C@H]1/C=C\CCCCC[C@H](NC(=O)OC(C)(C)C)C(=O)N1C[C@H](OC(=O)N3Cc4cccc(F)c4C3)C[C@H]1C(=O)N2 [Compound 236] | > 7.00 | > 7.00 |  |
| O=C1N[C@]2(C(=O)O)C[C@H]2/C=C\CCCCC[C@H](Nc2c(N3CCC3)c(=O)c2=O)C(=O)N2C[C@H](OC(=O)N3Cc4cccc(F)c4C3)C[C@@H]12 [Compound 238] | > 5.00 | > 7.00 |  |
| CC(C)(C)NC(=S)N[C@H]1CCCCC/C=C\[C@@H]2C[C@@]2(C(=O)NS(=O)(=O)C2CC2)NC(=O)[C@@H]2C[C@@H](OC(=O)N3Cc4cccc(F)c4C3)CN2C1=O [Compound 239] | > 7.00 | > 7.00 |  |
| O=C1N[C@]2(C(=O)NS(=O)(=O)C3CC3)C[C@H]2/C=C\CCCCC[C@H](NC(=S)NC2CCCC2)C(=O)N2C[C@H](OC(=O)N3Cc4cccc(F)c4C3)C[C@@H]12 [Compound 240] | > 6.00 | > 7.00 |  |
| O=C1N[C@]2(C(=O)NS(=O)(=O)C3CC3)C[C@H]2/C=C\CCCCC[C@H](Nc2c(N3CCC3)c(=O)c2=O)C(=O)N2C[C@H](OC(=O)N3Cc4cccc(Cl)c4C3)C[C@@H]12 [Compound 241, (2R,6S,13aS,14aR,16aS,Z)-6-(2-(azetidin-1-yl)-3,4-dioxocyclobut-1-enylamino)-14a-(cyclopropylsulfonylcarbamoyl)-5,16-dioxo-1,2,3,5,6,7,8,9,10,11,13a,14,14a,15,16,16a-hexadecahydrocyclopropa[e]pyrrolo[1,2-a][1,4]diazacyclopentadecin-2-yl 4-chloroisoindoline-2-carboxylate] | > 6.00 | > 7.00 |  |
| O=C1N[C@]2(C(=O)NS(=O)(=O)C3CC3)C[C@H]2/C=C\CCCCC[C@H](Nc2c(N3CCC3)c(=O)c2=O)C(=O)N2C[C@H](OC(=O)N3CCc4ccccc4C3)C[C@@H]12 [Compound 242] | > 5.00 | > 7.00 |  |
| O=C1N[C@]2(C(=O)NS(=O)(=O)C3CC3)C[C@H]2/C=C\CCCCC[C@H](NC(=O)N2CCCC2)C(=O)N2C[C@H](OC(=O)N3Cc4cccc(F)c4C3)C[C@@H]12 [Compound 243] | > 7.00 | > 7.00 |  |
